The test system of one data set is DLD-1 cells. Kind of data set: Sensitivity of DLD-1 versus HCT-116 cells to EBP inhibitors. Format: cell-based, human. To be noted: varying doses.
A further data set has as its system DLD1 tumors. Nature of the data set: Xenograft mouse model, DLD1 tumors. The data set is classed as in vivo. The settings on record: nude mice, 40 mg/kg intraperitoneally twice daily for 18 days.
Data set [1] has as its system colorectal tumors in CPC;Apc mice. Kind of data set: Anti-tumor effects in CPC;Apc mice. The data set is classed as in vivo, mouse. To be noted: 90 days' treatment. The method, then:
These mice carry a CDX2P-NLS Cre recombinase transgene and a loxP-targeted Apc allele that deletes exon 14, leading to a frame shift at codon 580 and a truncated APC protein. […] Weights were measured every 15 days over the treatment period. These studies were performed according to the guidelines of the UT Southwestern Institutional Animal Care and Use Committee.

Data set [2] in a line: Mouse PK analysis, large intestine. The data set is classed as in vivo. The settings on record: for AUC(0-t): female, CD-1, mouse, large intestine, read-out: Large Intestinal pK AUClast (converted).
A short description of data set [3]: Mouse PK analysis, plasma. Format: in vivo. To be noted: for Cmax: female, CD-1, mouse, plasma, dosed intravenously (i.v.).

Where two headings read alike, the source gives them in different places. Some results are limits rather than exact numbers.

The term Cmax denotes the highest concentration seen after dosing. What is called melting point is the temperature, or range, at which the solid turns liquid.

Turning to `CC(C(O)c1ccc(O)cc1)N1CCC(Cc2ccccc2)CC1` (centres unmarked) [Ifenprodil, ifenprodil], the “selective sensitivity of DLD-1 versus HCT-116 cells” value with DLD-1 cells was “selectively sensitive”.
The same measure, in the same setting: the result for `COc1ccc2c(c1)CCC(c1ccccc1)=C2c1ccc(OCCN2CCCC2)cc1` [Nafoxidine, nafoxidine] reads “selectively sensitive”.
Regarding `COc1ccc(S(=O)(=O)N2CCC(N3CCC(C)CC3)CC2)cc1` [TASIN-1], the “toxicity and body weights” value in the data set on DLD1 tumors is “no overt toxicity and no statistically significant differences were observed in the body weights”. Besides, the “body weight over treatment” value in data set [1] is listed as “gained weight to a level similar to WT mice”.
With `COc1ccc(S(=O)(=O)N2CCC(N3CCC(C)CC3)CC2)cc1` [compound 6, 1′-((4-methoxyphenyl)sulfonyl)-4-methyl-1,4′-bipiperidine], the AUC(0-t) in data set [2] (ip, 10 mg/kg) is 12300 ng·h/mL. Moreover, in data set [3] (ip, 10 mg/kg), the “Plasma pK AUClast (ng · min/mL)” value was 104,103 ng · min/mL, the “Plasma pK Cmax (ng/mL)” value is given as 2,390 ng/mL, the “Plasma pK Tmax (min)” value was determined as 10 min and the “Plasma pK Vz (mL)” value is on record as 162 mL.
Turning to `CC1CCN(C2CCN(S(=O)(=O)c3ccc(Cl)cc3)CC2)CC1` [compound 16, 1′-((4-Chlorophenyl)sulfonyl)-4-methyl-1,4′-bipiperidine], the melting point was 152 to 155 °C. In data set [2] (iv, 10 mg/kg), the AUC(0-t) is 4380 ng·h/mL and the “Large Intestinal pK Tmax (min)” value was 10 min. In addition, in data set [3] (iv), the Cmax lay within 191 to 742 ng/mL. In addition, in data set [3] (iv, 10 mg/kg), the “Plasma pK AUClast (ng · min/mL)” value is listed as 21,581 ng · min/mL, the “Plasma pK Cmax (ng/mL)” value turned out to be 191 ng/mL, the “Plasma pK Tmax (min)” value is reported as 30 min and the “Plasma pK Vz (mL)” value is given as 1243 mL.
On to `CC1CCN(C2CCN(S(=O)(=O)c3ccc(OC(F)F)cc3)CC2)CC1` [compound 22, 1′-((4-(Difluoromethoxy)phenyl)sulfonyl)-4-methyl-1,4′-bipiperidine], for which the melting point was in the range of 132 to 135 °C. Besides, in data set [2] (ip, 10 mg/kg), the AUC(0-t) was 13200 ng·h/mL. Moreover, the AUC(0-t) in data set [2] (iv, 5 mg/kg) is 8530 ng·h/mL. For the same molecule, in data set [2] (po, 20 mg/kg), the AUC(0-t) was 14800 ng·h/mL and the “Large Intestinal pK Tmax (min)” value turned out to be 10 min. The oral bioavailablity in data set [3] (20 mg/kg) was found to be 52%. Moreover, the Cmax in data set [3] (iv) lay within 191 to 742 ng/mL. Further, in data set [3] (ip, 10 mg/kg), the “Plasma pK AUClast (ng · min/mL)” value is listed as 205,914 ng · min/mL, the “Plasma pK Cmax (ng/mL)” value is on record as 1,117 ng/mL, the “Plasma pK Tmax (min)” value is given as 10 min and the “Plasma pK Vz (mL)” value was determined as 156 mL. In addition, in data set [3] (iv, 5 mg/kg), the “Plasma pK AUClast (ng · min/mL)” value is recorded as 197,571 ng · min/mL, the “Plasma pK Cmax (ng/mL)” value came out at 742 ng/mL, the “Plasma pK Tmax (min)” value worked out at 10 min and the “Plasma pK Vz (mL)” value is 135 mL. Further, in data set [3] (po, 20 mg/kg), the “Plasma pK AUClast (ng · min/mL)” value is given as 328,296 ng · min/mL, the “Plasma pK Cmax (ng/mL)” value stood at 691 ng/mL and the “Plasma pK Vz (mL)” value is 153 mL.
The molecule `CC1CCN(C2CCN(S(=O)(=O)c3cccc4cnccc34)CC2)CC1` [compound 90, 5-((4-Methyl-[1,4′-bipiperidin]-1′-yl)sulfonyl)isoquinoline] showed a melting point of 123 to 126 °C.
Same read-out and setting: the result for `CC1CCCN(C2CCN(S(=O)(=O)c3ccc(OC(F)F)cc3)CC2)C1` (centres unmarked) [compound 91, 1′-((4-(Difluoromethoxy)phenyl)sulfonyl)-3-methyl-1,4′-bipiperidine] reads 88 to 91 °C; that for `C#CCC1CCN(C2CCN(S(=O)(=O)c3ccc(Br)cc3)CC2)CC1` [compound 92, 1′-((4-Bromophenyl)sulfonyl)-4-(prop-2-yn-1-yl)-1,4′-bipiperidine], 161 to 164 °C.
Same read-out and setting: the result for `Cc1cc(C)c(S(=O)(=O)N2CCC(N3CCC(CCO)CC3)CC2)c(C)c1` [compound 100, 2-(1′-(Mesitylsulfonyl)-[1,4′-bipiperidin]-4-yl)ethanol] reads 82 to 85 °C; that for `Cc1cc(C)c(S(=O)(=O)N2CCC(N3CCC(O)CC3)CC2)c(C)c1` [compound 101, 1′-(Mesitylsulfonyl)-[1,4′-bipiperidin]-4-ol], 120 to 123 °C; that for `Cc1cc(C)c(S(=O)(=O)N2CCC(N3CCC(c4ccccc4)CC3)CC2)c(C)c1` [compound 111, 1′-(Mesitylsulfonyl)-4-phenyl-1,4′-bipiperidine], 141 to 144 °C.
The same measure, in the same setting: the value for `Cc1cc(C)c(S(=O)(=O)N2CCC(C(=O)N3CCC(C)CC3)CC2)c(C)c1` [compound 113, (1-(Mesitylsulfonyl)piperidin-4-yl 4-methylpiperidin-1-yl)methanone] was 122 to 124 °C.
`Cc1ccc(NC2CCN(S(=O)(=O)c3c(C)cc(C)cc3C)CC2)cc1` [compound 114, 1-(Mesitylsulfonyl)-N-(p-tolyl)piperidin-4-amine] had a melting point of 148 to 151 °C.
On the same count and under the same terms, the value for `Cc1ccc(C2CCN(S(=O)(=O)c3c(C)cc(C)cc3C)CC2)cc1` [compound 115, 1-(Mesitylsulfonyl)-4-(p-tolyl)piperidine] was 87 to 90 °C.
Regarding `Cc1cc(C)c(S(=O)(=O)N2CCC(c3ccccc3)CC2)c(C)c1` [compound 116, 1-(Mesitylsulfonyl)-4-phenylpiperidine], the melting point is 88 to 90 °C.
The same measure, in the same setting: the value for `CCCC(=O)NC1CCN(S(=O)(=O)c2c(C)cc(C)cc2C)CC1` [compound 118, N-(1-(Mesitylsulfonyl)piperidin-4-yl)butyramide] was 144 to 147 °C; that for `CC1CCN(C2CCN(C(=O)c3ccc(OC(F)(F)F)cc3)CC2)CC1` [compound 119, (4-Methyl-[1,4′-bipiperidin]-1′-yl)(4-(trifluoromethoxy)phenyl)methanone] was 72 to 75 °C.
Regarding `Cc1cc(C)c(S(=O)(=O)c2ccc(N3CCC(C)CC3)cc2)c(C)c1` [compound 125, 1-(4-(Mesitylsulfonyl)phenyl)-4-methylpiperidine], the melting point was in the range of 103 to 105 °C.
The same measure, in the same setting: the result for `Cc1cc(C)c(S(=O)(=O)N2CCN(C3CN4CCC3CC4)CC2)c(C)c1` (centres unmarked) [compound 127, 3-(4-(Mesitylsulfonyl)piperazin-1-yl)quinuclidine] reads over 300 °C.
The molecule `Cc1cc(C)c(S(=O)(=O)N2CCN(C34CC5CC(CC(C5)C3)C4)CC2)c(C)c1` [compound 128, 1-(Adamantan-1-yl)-4-(mesitylsulfonyl)piperazine] showed a melting point of 182 to 184 °C.
The same measure, in the same setting: the value for `Cc1cc(C)c(S(=O)(=O)N2CCC(NC3CCCC3)CC2)c(C)c1` [compound 132, N-cyclopentyl-1-(mesitylsulfonyl)piperidin-4-amine] was 88 to 92 °C; that for `Cc1cc(C)c(S(=O)(=O)N2CCC(CO)CC2)c(C)c1` [compound 137, (1-(mesitylsulfonyl)piperidin-4-yl)methanol] was 85 to 88 °C; that for `Cc1cc(C)c(S(=O)(=O)N2CCC(C=O)CC2)c(C)c1` [compound 138, 1-(mesitylsulfonyl)piperidine-4-carbaldehyde] was 71 to 74 °C.
Same read-out and setting: the value for `CC1CCN(CC2CCN(S(=O)(=O)c3ccc4ncsc4c3)CC2)CC1` [compound 148, 6-((4-((4-methylpiperidin-1-yl)methyl)piperidin-1-yl)sulfonyl)benzo[d]thiazole] was 137 to 139 °C.
Same read-out and setting: the value for `CC1CCN(CC2CCN(S(=O)(=O)c3ccc(-c4ccccc4F)cc3)CC2)CC1` [compound 154, 1-((2′-fluoro-[1,1′-biphenyl]-4-yl)sulfonyl)-4-((4-methylpiperidin-1-yl)methyl)piperidine] was 136 to 139 °C; that for `CC1CCN(CC2CCN(S(=O)(=O)c3ccc(-c4ccccc4)cc3)CC2)CC1` [compound 155, 1-([1,1′-biphenyl]-4-ylsulfonyl)-4-((4-methylpiperidin-1-yl)methyl)piperidine] was 148 to 151 °C.

(Values after patent publication US20220024891A1 (The Board of Regents of the University of Texas System, priority 2018, published 2022).)
